Patent US20180000085A1, “USE OF PICOLINAMIDE COMPOUNDS WITH FUNGICIDAL ACTIVITY” (DOW AGROSCIENCES LLC, priority 2014, published 2018)

What was measured:
[1] = test system: Puccinia triticina; assay: Wheat brown rust (PUCCRT) disease control on wheat seedlings; assay type: in vivo; design: key to PUCCRT 3DC, HV activity at 100 ppm (% control rating) / PUCCRT disease control, 3DC / PUCCRT 1DP disease control rating, HV activity / PUCCRT 3DC disease control rating, HV activity / PUCCRT 3DC, LV activity at 125.1 g/H (% Control rating) / PUCCRT 1DP, LV activity at 125.1 g/H (% Control rating) / PUCCRT 3DC disease control rating, LV activity at 125.1 g/H / PUCCRT 1DP disease control rating, LV activity at 125.1 g/H / PUCCRT 3DC disease control rating, HV activity at 100 ppm / PUCCRT 1DP disease control rating, HV activity at 100 ppm / HV activity at 100 ppm PUCCRT 3DC (disease control rating) / LV activity at 125.1 g/H PUCCRT 1DP (disease control rating) / LV activity at 125.1 g/H PUCCRT 3DC (disease control rating): A: > 80; B: ≤ 80; C: Not Tested; D: No Activity Observed in the Reported Assay; settings: for PUCCRT 1DP disease control rating, HV activity / PUCCRT 3DC disease control rating, HV activity: HV application at 100 ppm
[2] = test system: Zymoseptoria tritici; assay: Leaf blotch of wheat (SEPTTR) disease control on wheat seedlings; assay type: in vivo; design: key to SEPTTR 1DP, HV activity at 100 ppm (% control rating) / SEPTTR 3DC, HV activity at 100 ppm (% control rating) / SEPTTR disease control, 1DP / SEPTTR disease control, 3DC / SEPTTR 1DP disease control rating, HV activity / SEPTTR 3DC disease control rating, HV activity / SEPTTR 3DC, LV activity at 125.1 g/H (% Control rating) / SEPTTR 1DP, LV activity at 125.1 g/H (% Control rating) / SEPTTR 1DP disease control rating, LV activity at 125.1 g/H / SEPTTR 3DC disease control rating, LV activity at 125.1 g/H / SEPTTR 3DC disease control rating, HV activity at 100 ppm / SEPTTR 1DP disease control rating, HV activity at 100 ppm / HV activity at 100 ppm SEPTTR 3DC (disease control rating) / HV activity at 100 ppm SEPTTR 1DP (disease control rating) / LV activity at 125.1 g/H SEPTTR 1DP (disease control rating) / LV activity at 125.1 g/H SEPTTR 3DC (disease control rating): A: > 80; B: ≤ 80; C: Not Tested; D: No Activity Observed in the Reported Assay; settings: for SEPTTR 1DP disease control rating, HV activity / SEPTTR 3DC disease control rating, HV activity: HV application at 100 ppm
[3] = 1 Day Protectant, wheat brown rust
[4] = 3 Day Curative, wheat brown rust
[5] = 1 Day Protectant, wheat leaf blotch
[6] = 3 Day Curative, wheat leaf blotch
[7] = low volume application, 125.1 g/H, 1 day protectant
[8] = low volume application, 125.1 g/H, 3 day curative
[9] = high volume application, 100 ppm, 1 day protectant
[10] = high volume application, 100 ppm, 3 day curative
[11] = low volume application, 125.1 g/H, 1 Day Protectant
[12] = low volume application, 125.1 g/H, 3 Day Curative

COCC(OC(=O)C(C)NC(=O)c1nccc(OC)c1OCOC(C)=O)C(Oc1ccccc1)C(C)C (stereo not shown) [Cmpd 1095]
LV activity at 125.1 g/H PUCCRT 1DP (disease control rating) ([1]; low volume application, 125.1 g/H, 1 Day Protectant, wheat brown rust): B (≤ 80) | LV activity at 125.1 g/H PUCCRT 3DC (disease control rating) ([1]; low volume application, 125.1 g/H, 3 Day Curative, wheat brown rust): B (≤ 80) | LV activity at 125.1 g/H SEPTTR 1DP (disease control rating) ([2]; low volume application, 125.1 g/H, 1 Day Protectant, wheat leaf blotch): D | LV activity at 125.1 g/H SEPTTR 3DC (disease control rating) ([2]; low volume application, 125.1 g/H, 3 Day Curative, wheat leaf blotch): D

CC[C@@H](CCOC)[C@@H](Oc1ccccc1)[C@H](C)OC(=O)[C@@H](C)NC(=O)c1nccc(OC)c1O [Cmpd 308]
PUCCRT 1DP disease control rating, HV activity [1, 3]: D | PUCCRT 3DC disease control rating, HV activity [1, 4]: D | SEPTTR 1DP disease control rating, HV activity [2, 5]: D | SEPTTR 3DC disease control rating, HV activity [2, 6]: B (≤ 80)

COc1ccnc(C(=O)N[C@@H](C)C(=O)O[C@@H](C)[C@@H](Oc2cccc3ccccc23)C(C)C)c1OCOC(C)=O [Cmpd 854]
PUCCRT 1DP disease control rating, LV activity at 125.1 g/H [1, 7]: A (> 80) | PUCCRT 3DC disease control rating, LV activity at 125.1 g/H [1, 8]: B (≤ 80) | SEPTTR 1DP disease control rating, LV activity at 125.1 g/H [2, 7]: B (≤ 80) | SEPTTR 3DC disease control rating, LV activity at 125.1 g/H [2, 8]: A (> 80)

CCC(CC)C(Oc1ccccc1Cl)C(C)OC(=O)C(C)NC(=O)c1nccc(OC)c1O (stereo not shown) [Cmpd 384]
PUCCRT 1DP disease control rating, HV activity [1, 3]: A (> 80) | PUCCRT 3DC disease control rating, HV activity [1, 4]: A (> 80) | SEPTTR 1DP disease control rating, HV activity [2, 5]: B (≤ 80) | SEPTTR 3DC disease control rating, HV activity [2, 6]: A (> 80)

CC[C@@H](CCOC)[C@@H](Oc1ccccc1)[C@H](C)OC(=O)[C@H](C)NC(=O)c1nccc(OC)c1O [Cmpd 305]
PUCCRT 1DP disease control rating, HV activity [1, 3]: A (> 80) | PUCCRT 3DC disease control rating, HV activity [1, 4]: A (> 80) | SEPTTR 1DP disease control rating, HV activity [2, 5]: A (> 80) | SEPTTR 3DC disease control rating, HV activity [2, 6]: A (> 80)

C=CC[C@@H](Oc1cccc(Cl)c1)[C@H](C)OC(=O)[C@H](C)NC(=O)c1nccc(OC)c1O [Cmpd 1021]
PUCCRT 1DP disease control rating, HV activity at 100 ppm [1, 9]: A (> 80) | PUCCRT 3DC disease control rating, HV activity at 100 ppm [1, 10]: A (> 80) | SEPTTR 1DP disease control rating, HV activity at 100 ppm [2, 9]: A (> 80) | SEPTTR 3DC disease control rating, HV activity at 100 ppm [2, 10]: A (> 80)

CCC(CC)[C@@H](Oc1cc(F)cc(Cl)c1)[C@H](C)OC(=O)[C@H](C)NC(=O)c1nccc(OC)c1OC(C)=O [Cmpd 603]
PUCCRT 1DP, LV activity at 125.1 g/H (% Control rating) [1, 11]: A (> 80) | PUCCRT 3DC, LV activity at 125.1 g/H (% Control rating) [1, 12]: A (> 80) | SEPTTR 1DP, LV activity at 125.1 g/H (% Control rating) [2, 11]: A (> 80) | SEPTTR 3DC, LV activity at 125.1 g/H (% Control rating) [2, 12]: A (> 80)

C=CC(OC(=O)C(C)NC(=O)c1nccc(OC)c1O)C(Oc1ccccc1)C(C)C (stereo not shown) [Cmpd 1033]
HV activity at 100 ppm PUCCRT 1DP (disease control rating) ([1]; HV application, 100 ppm, 1 Day Protectant, wheat brown rust): A (> 80) | HV activity at 100 ppm PUCCRT 3DC (disease control rating) ([1]; HV application, 100 ppm, 3 Day Curative, wheat brown rust): A (> 80) | HV activity at 100 ppm SEPTTR 1DP (disease control rating) ([2]; HV application, 100 ppm, 1 Day Protectant, wheat leaf blotch): A (> 80) | HV activity at 100 ppm SEPTTR 3DC (disease control rating) ([2]; HV application, 100 ppm, 3 Day Curative, wheat leaf blotch): B (≤ 80)

CCC(CC)[C@@H](Oc1ccc(Cl)cc1Cl)[C@H](C)OC(=O)[C@@H](NC(=O)c1nccc(OC)c1O)C(C)C [Cmpd 408]
PUCCRT 1DP disease control rating, HV activity [1, 3]: B (≤ 80) | PUCCRT 3DC disease control rating, HV activity [1, 4]: D | SEPTTR 1DP disease control rating, HV activity [2, 5]: B (≤ 80) | SEPTTR 3DC disease control rating, HV activity [2, 6]: D

COc1ccnc(C(=O)N[C@@H](C)C(=O)O[C@@H](C)[C@H](Oc2ccc(C(F)(F)F)cc2)C(C)C)c1OCOC(C)=O [Cmpd 618]
PUCCRT 1DP, LV activity at 125.1 g/H (% Control rating) [1, 11]: A (> 80) | PUCCRT 3DC, LV activity at 125.1 g/H (% Control rating) [1, 12]: A (> 80) | SEPTTR 1DP, LV activity at 125.1 g/H (% Control rating) [2, 11]: B (≤ 80) | SEPTTR 3DC, LV activity at 125.1 g/H (% Control rating) [2, 12]: A (> 80)
